Experimental data from patent US7015248B2, “Use of abietic acid and derivatives thereof for inhibiting cancer” (Xiamen Ever-Health Bio-Tech. Co. Ltd, priority 2002, dated 2006).
Read-outs that look alike come from different tables or passages of the source.

Legend:
[1] = tested on: plasma membrane of the cell; assay: electrophysiological experiments and dye-permeability assays; format: cell-based
Protocol: In addition, to further study the mechanisms underlying the swelling phenomenon of a cell, electrophysiological experiments and dye-permeability assays were conducted to measure the permeability of a plasma membrane of the cell.

lipoxygenase pathway = conditions: Ulusu et al., 2002; read-out: IC50 of inhibition of lipoxygenase pathway; cited from earlier work
[2] = tested on: MCF-7 breast cancer cell line; format: in vivo; conditions: 0.02667 mg per gram body weight by gastric pipe per two days; for Average maximum diameter: 8 mice
Protocol: Eighty Balb/c-nu/nu female nude mice, supplied by National Laboratory Animal Center in the ROC (Taiwan), four-week old, weight about 18 to 20 g, free of pinworm infection, were housed in the laboratories of the National Yang-Ming University, Taipei, ROC (Taiwan). Clear water and feeds were normally provided. The litters were replaced with new ones per three days. On the other hand, a MCF-7 breast cancer cell line was cultured under standard conditions.
Since the nude mice were five weeks old, the nude mice were intramuscularly injected with 1.7 mg of estradiol valerate at their leg regions. On the other hand, the MCF-7 cells were treated with estradiol for 24 hours, and then trypsinized, centrifuged and recovered in the Minimum Essential Medium (MEM) medium to achieve a concentration of 2×10^7 cell/ml.
After two days following the intramuscular injection of estradiol valerate, the nude mice were subcutaneously injected with 500 μl of the estradiol-treated MCF-7 cells (2×10^7 cell/ml) at their back regions. Once injection, the back regions swelled but became even later.
After three weeks following the injection of the MCF-7 cells, a subcutaneous tumor of 2 mm in a maximum diameter was developed at the backs of the nude mice.
These tumor containing nude mice were divided into two groups, each including 8 mice. One of the two groups were fed normally as a control group. The mice of the other group were fed with abietic acid at a dosage of 0.02667 mg per gram of the body weight of the nude mice by a gastric pipe per two days for a period of more than 12 weeks (experimental group).
The maximum diameter of the tumor on the back of each nude mouse of the control group and the experimental group were recorded, as shown in Table 1 and FIG. 3.

[3] = tested on: HeLa cells, a human epithelioid cervical carcinoma cell line; assay: video-enhanced DIC microscopy of cell morphology, HeLa cells; format: cell-based
Protocol: (§1) For evaluation of the biological activities of abietic acid on mammalian cells, a time-lapsed recording using video-enhanced DIC microscopy on a variety of cultured cells, including cancerous and non-cancerous cell lines, before and after addition of abietic acid, was performed.
(§2) Abietic acid may be extracted by any conventional methods. In one embodiment of the invention, abietic acid was extracted according to the method described in Luong J H et al., 1999, Electrophoresis. 20(7): 1546–54, and an abietic acid stock solution at a concentration of 150 μg/ml was prepared subsequently.
HeLa cells, a human epithelioid cervical carcinoma cell line, were cultured in a standard medium under standard conditions. The HeLa cells were trypsinized and a cell suspension at a concentration of 10^5 cells per milliliter of medium was prepared therefrom. The cell suspension was poured into a 22×22 mm coverglass and treated without abietic acid or with the abietic acid stock solution to achieve a final concentration of 0.3 μg/ml (1/500 dilution), 0.15 μg/ml (1/1000 dilution) or 0.03 μg/ml (1/5000 dilution), respectively.
(§3) It has been known that the morphology of a cell reflects the healthy condition of the cell. For instance, once a cell, which is normally attached to a substrate with a flat morphology, swells and becomes round in morphology, it means that the condition of the cell turns disadvantageous and the cell may stop the growth and be dead soon.

[4] = tested on: Hep-G2 human hepatocellular carcinoma cell line; assay: combination with mitomycin C on Hep-G2 cells; format: cell-based; conditions: in combination with mitomycin C
[5] = tested on: Detroit 551 normal fibroblast cells; assay: DIC microscopy of cell morphology, Detroit 551 normal fibroblast cells; format: cell-based
Protocol: as §1, §2
Detroit 551 normal fibroblast cells were treated without abietic acid or with abietic acid, as described above. The morphology of the normal fibroblast cells was affected when treated with 0.15 and 0.3 μg/ml abietic acid.
as §3

[6] = tested on: HepG2 cells, a human heptocellular carcinoma cell line; assay: DIC microscopy of cell morphology, HepG2 cells; format: cell-based; conditions: for morphology of HepG2 cells: 24-hour incubation
Protocol: as §1, §2
HepG2 cells, a human heptocellular carcinoma cell line, were cultured in a standard medium under standard conditions. The HepG2 cells were trypsinized and a cell suspension at a concentration of 10^5 cells per milliliter of medium was prepared therefrom. The cell suspension was poured into a 22×22 mm coverglass and treated without abietic acid or with 0.3, 0.15 or 0.03 μg/ml abietic acid, respectively, as described above.
as §3

prostaglandin E2 = conditions: lipopolysaccharide-treated macrophages; Fernandez et al., 2001; cited from earlier work
[7] = tested on: breast cancer cells such as MCF-7 or T-47D; conditions: Mellanen et al., 1996; cited from earlier work
[8] = MTT (mitochondrial activity) assay of cell proliferation; format: cell-based
Excerpt: A MTT (mitochondrial activity) assay was used to determine a cell proliferation.

[9] = tested on: MCF-7 breast cancer cell line; assay: combination with taxol against MCF-7 cells; format: cell-based; conditions: in combination with taxol

## CC(C)C1=CC2=CC[C@@H]3[C@](C)(CCC[C@@]3(C)C(=O)O)[C@H]2CC1 [abietic acid]
[1]
  permeability of a plasma membrane: direct effect on influx and efflux of chemicals across the cell membrane
Lipoxygenase pathway
  IC50: 29.5 ± 1.29 µM
[2]; 12 weeks
  average maximum diameter of the tumor in comparison with mice without treatment: significantly reduced
[2]; more than 12 weeks
  survival of mice to the end of the period: all the mice were alive
[2]; week 1
  Average maximum diameter: 0.587 cm
[2]; week 3
  Average maximum diameter: 0.675 cm
[2]; week 6
  Average maximum diameter: 0.700 cm
[2]; week 9
  Average maximum diameter: 0.787 cm
[2]; week 12
  Average maximum diameter: 0.800 cm
[3]; 0.03, 0.15 and 0.3 μg/ml, 24-hour incubation
  morphology of HeLa cells: serious swelling phenomenon
[3]; HeLa cell line
  concentration effective to induce a swelling phenomenon: 0.03 µg/mL
[3]; HeLa cells, about 24 hours exposure, relatively low concentration
  growth of cancer cells after swelling: inhibition of the growth and the death of the cancer cells
[4]
  effect on efficacy of mitomycin C on growth: accelerate the efficacy of mitomycin C
[5]; 0.03 μg/ml
  morphology of normal fibroblast cells: normal and flat morphology
[5]; 0.15 and 0.3 μg/ml
  morphology of normal fibroblast cells: affected
[5]; Detroit 551
  concentration that affects the morphology of a normal fibroblast cell: higher than 0.15 μg/ml
[5]; about 24 hours exposure at the same concentration
  morphology and growth of normal fibroblast cells: remained flat in morphology and grew well
[6]; 0.03 μg/ml
  morphology of HepG2 cells: different morphology
[6]; 0.15 and 0.3 μg/ml
  morphology of HepG2 cells: swelled
[6]; HepG2 cell line
  concentration effective to induce a swelling phenomenon: 0.03 µg/mL
[6]; HepG2 cells, about 24 hours exposure, relatively low concentration
  growth of cancer cells after swelling: inhibition of the growth and the death of the cancer cells
Prostaglandin E2
  production of prostaglandin E2: inhibit the production of the inflammatory mediator, prostaglandin E2
[7]
  estrogenic effect: estrogenic
[8]; abietic acid by itself
  cell proliferation / mitosis: inhibit cell mitosis in a dose-dependent manner
[8]; in combination with a variety of anti-cancer drugs
  effect on killing effects of anti-cancer drugs: significantly enhanced the killing effects of a variety of anti-cancer drugs
[9]
  effect on inhibitory activity of taxol: enhance the inhibitory activity of taxol
